Measured values published in patent US10172769B2, “Method for whitening teeth” (DENT-WHITE CO., LTD., priority 2015, dated 2019).

Tests used:
[1] = Degree of permeation of hydrogen peroxide through transwell membrane according to anion irradiation; conditions: 10 minutes, room temperature, composition with 15% by weight hydrogen peroxide and 25 nM potassium triphosphate
Description: Two identical transwell membranes were prepared by the above-described process, and one of them was irradiated with anions at room temperature for 10 minutes using an anion irradiator (trade name: Bluen: BN-108), and the other one was allowed to stand at room temperature for 10 minutes without irradiating anions.
Thereafter, the concentration of hydrogen peroxide escaped from each transwell membrane to the outside was titrated to calculate the ratio of hydrogen peroxide that passed through the membrane.

[2] = cited from earlier work

Row | Structure (SMILES) | ratio of hydrogen peroxide escaped from the transwell membrane to the outside ([1]; anion-irradiated) [% by weight] | ratio of hydrogen peroxide escaped from the transwell membrane to the outside ([1]; non-irradiated) [% by weight] | pKa [2]
1 | OO [hydrogen peroxide] | 72 | 51 | –
2 | O=P([O-])([O-])OP(=O)([O-])OP(=O)([O-])[O-].[K+].[K+].[K+].[K+].[K+] [potassium triphosphate] | – | – | 12.38
